The values below come from patent US20190070170A1, “METHOD OF S[…]-1” (Macau University of Science and Technology, priority 2017, published 2019).

The subject of one experiment is mPGES-1. Description: mPGES-1 protein expression in LPS-activated rat peritoneal macrophages (western blotting). It is filed as cell-based. The note with it: SIN or DEX 1 h, LPS 24 h. As for the experimental part:
(§1) Sprague-Dawley (SD) rats from the University of Hong Kong were housed in cages with free access to food and water. Peritoneal macrophages of SD rats were isolated as described in Liu J. et al., Pharmacological research 2016, 111:303-315. Briefly, untreated rats were sacrificed and after laparotomy, about 50 ml cold sterile Hank's balanced salt solution (HBSS) was used to lavage the peritoneal cavity at twice, and then the peritoneal lavage fluid was collected and centrifuged at 1500 rpm for 10 min. The cell pellets was suspended at a density 1.5×10^6 cells/ml in pre-hearted DMEM medium with 10% heat-inactivated FBS, penicillin G (100 units/ml), streptomycin ([…]), and L-glutamine (2 mM), followed by seeding in 6-well plates at a density of 4.5×10^6 cells and incubation for 2 h. Then the medium were discarded to remove the non-adherent cells. The adherent cells were further washed for two times with pre-heated DMEM medium to remove floating cells. Next, cells were pre-treated with various concentration of SIN for 1 h, followed by stimulation with LPS (1 μg/ml).
(§2) Whole-cell and nuclear proteins were obtained using RIPA lysis buffer (CST, Boston, Mass., USA) and Nuclear and Cytoplasmic Extraction Reagents kit from Thermo Scientific (Asheville, N.C., USA), respectively. […] The levels of protein expression were measured using Odyssey v3.0 software from Li-COR (Lincoln, Nebr., USA).

The test system of the next experiment is p-cPLA2. Description: p-cPLA2 protein expression in LPS-activated rat peritoneal macrophages (western blotting). It is filed as cell-based. To be noted: SIN or DEX 1 h, LPS 24 h. As for the experimental part:
as §1, §2

A further experiment concerns p65. Description: Nuclear translocation of p65 in LPS-stimulated RAW264.7 cells (immunofluorescence). It is filed as cell-based, mouse. To be noted: 640 μM SIN 1 h, then LPS. As for the experimental part: RAW 264.7 cells were seeded on glass coverslip at a density 2.0×10^5 cells/well in 6-well plates and incubated for 24 h. Cells were pretreated with 640 μM SIN for 1 h and followed stimulated by LPS (100 ng/ml) for another 1 h. Rat primary peritoneal macrophages were grown on glass coverslip at a density 4.5×10^6 cells/well in 6-well plates and pretreated with 640 μM SIN for 1 h, and then challenged with LPS (1 μg/ml) for another 30 min (for NF-κB) or 2 h (for C/EBPβ). Cells were fixed with 4% paraformaldehyde for 30 min at room temperature and then blocked for 1 h with 5% BSA in PBS containing 0.1% Triton X-100. Then incubated with a primary antibodies for overnight and followed by Alexa Fluor 594-labeled goat anti-rabbit IgG. Cells were washed three times, and stained with DAPI for 30 min. After a wash step, cells were fixed on the slide and the images were acquired using a LeicaDM2500 fluorescent microscope (Leica Microsystems GmbH, Wet-zlar, Germany).

The subject of a further experiment is NO. Description: NO production in LPS-stimulated RAW264.7 cells (Griess reagent). In kind it is cell-based, mouse. The note with it: pretreatment 1 h, LPS 100 ng/ml 18 h. The protocol: RAW264.7 and A549 cell lines were obtained from American Type Culture Collection (ATCC, Manassas, Va., USA) and maintained in DMEM (RAW264.7) or 1640 (A549) medium containing 10% FBS (Gibco-BRL, Grand Island, N.Y., USA) and antibiotics at 37° C. in a humidified atmosphere containing 5% CO2. RAW264.7 cells were plated in 6-well plates at a density of 4×10^5 cells and incubated for 24 h, then the cells were pretreated with different concentrations of SIN for 1 h before stimulating with LPS (100 ng/ml). A549 cells were seeded in 6-well plates at a density of 1×10^5 cells and incubated for 24 h, followed by pretreatment with SIN. A549 cells were then stimulated by IL-1β (1 ng/ml).
RAW264.7 cells and rat peritoneal macrophages were seeded in a 96-well plate at density of 1.4×10^4 and 1.5×10^5 cells, respectively. Various concentration of SIN was added to the cells for 1 hour before LPS stimulation. After stimulation with LPS for 18 h (RAW264.7 cells) or 24 h (rat peritoneal macrophages), MTT solution was added to each well and incubated for another 4 hours. 100 μl 10% SDS-HCl solution was added to each well for overnight to dissolve the formazan dye. The optical density was measured at 570 nm against a reference wavelength of 650 nm using a microplate UV/VIS spectrophotometer (Tecan, Mannedorf, Switzerland). […]

A further experiment deals with IL-6. Description: IL-6 level in LPS-stimulated rat peritoneal macrophages (ELISA). It is filed as cell-based. The note with it: pretreatment 1 h, LPS 1 μg/ml 24 h. The protocol:
as §1
RAW264.7 cells and rat peritoneal macrophages were seeded in a 96-well plate at density of 1.4×10^4 and 1.5×10^5 cells, respectively. […] The optical density was measured at 570 nm against a reference wavelength of 650 nm using a microplate UV/VIS spectrophotometer (Tecan, Mannedorf, Switzerland). […]
On the technique in general: ELISA stands for enzyme-linked immunosorbent assay.

For the compound `COC1=C[C@@H]2[C@@H]3Cc4ccc(OC)c(O)c4[C@]2(CCN3C)CC1=O` [SIN, sinomenine], the mPGES-1 protein expression entry in the experiment with mPGES-1 was “significantly and dose-dependently inhibited”. Also, the p-cPLA2 protein expression entry in the experiment on p-cPLA2 was “did not suppress”. In the experiment on p65, the “nuclear translocation of p65” value is listed as “did not produce observable effects”. Further, the “NO production (nitrite)” value in the experiment with NO is on record as “significantly inhibited”. Further, the IL-6 production entry in the experiment on IL-6 was “significantly inhibited”.
